≈ marks a conversion by molar mass, not a printed value. Like-named read-outs stand apart in the source and are kept apart here.
Key:
[1] = test system: G. lamblia WB trophozoites; experiment: ATP-bioluminescence growth and survival assay, G. lamblia WB; assay type: cell-based, Giardia lamblia; details: MtzS, 48 h, anaerobic, n = 3
Experimental: (§1) Compounds were tested for antiparasitic activity against E. histolytica (HM1:1MSS strain) and G. lamblia (WB, BRIS/87/HEPU/713 (713), BRIS/83/HEPU/106 (106) and the metronidazole resistant syngeneic line 713-M3 [[15,16]]) using an ATP-bioluminescence based screen for cell growth and survival [[17,18]]. Assay plates were inoculated with trophozoites (5 × 10^3 parasites/well) and incubated in the GasPak™ EZ Anaerobe Gas Generating Pouch Systems (VWR, West Chester, PA) to maintain anaerobic conditions throughout the incubation period. The assays were performed in triplicate using the CellTiter-Glo Luminescent Cell Viability Assay. Metronidazole was used as a positive control.
(§2) Trophozoites of E. histolytica strain HM1:IMSS and G. lamblia strains WB, BRIS/87/HEPU/713 (713),^10 BRIS/83/HEPU/106 (106)^11 and the metronidazole resistant syngenic line 713-M3^10,11 were axenically maintained in TYI-S-33 medium supplemented with penicillin (100 U/ml), streptomycin (100 µg/ml).^12 E. histolytica and G. lamblia trophozoites were counted using a particle counter (Beckman Coulter, Fullerton, CA). All experiments were performed using trophozoites harvested during the logarithmic phase of growth.
(§3) A three-fold serial dilution was then performed yielding a concentration range 0.25-625 µM. From this dilution plate, 4 µL were transferred into the 96-well screen plates followed by addition of 96 µL of trophozoites (5,000 parasites) to yield a final 8-point concentration range spanning 0.01- 25 µM. Assay plates were incubated for 48 h at 37 °C in the GasPak^TM EZ Anaerobe Gas Generating Pouch Systems (VWR, West Chester, PA) to maintain anaerobic condition throughout the incubation period. The assays were performed in triplicate using the CellTiter-Glo Luminescent Cell Viability Assay.^13

[2] = test system: C. difficile NAP1/027 CD26A54_R; experiment: MIC broth microdilution, metronidazole resistant C. difficile CD26A54_R; assay type: cell-based, Clostridium difficile; details: for MIC: Clostridioides difficile
[3] = MIC against ESKAPE pathogens, aerobic; assay type: cell-based; details: aerobic conditions, single concentration screen, n = 3; read-out: MIC ESKAPE bacteria
Experimental: All compounds were tested for activity against a set of anaerobic C. difficile bacteria (630 ATCC BAA-1382, NAP1/027 M7404, NAP1/027 ATCC BAA-1803, VPI10463 ATCC 43255, CD26A54_S and CD26A54_R) and representative ESKAPE pathogens S. aureus (MRSA ATCC 43300), E. coli (ATCC 25922), K. pneumoniae (ATCC 700603), A. baumannii (ATCC 19606) and P. aeruginosa (ATCC 27853) using a standard broth microdilution assay. Selected compounds were tested for activity against H. pylori strains (26695, and clinical isolates MtzS 13/25, MtzR 98/285 and MtzR 13/61) using agar plate dilution, and for antimicrobial activity against twelve Gram-positive bacterial strains: Enterococcus faecalis (VanA clinical isolate), Enterococcus faecium (MDR VanA ATCC 51559), Streptococcus pneumoniae (MDR ATCC 700677), S. aureus (MRSA ATCC 43300, MRSA clinical isolate, MRSA/DRSA clinical isolate, GISA NARSA NRS 1, GISA NARSA NRS 17, VRSA NARSA VRS1, VRSA NARSA VRS4 and VRSA NARSA VRS10) using broth microdilution. C. difficile strains were grown at 37 °C in a COY anaerobic chamber (5% H2, 10% CO2, 85% N2). H. pylori strains were grown at 37 °C under a microaerobic atmosphere (5% O2, 10% CO2). All facultative anaerobic bacteria were grown at 37 °C with normal atmospheric oxygen levels. […] Positive growth control of bacteria and DMSO as well as a negative control of only media were included for every plate. Full assay details are provided in the supplementary information.
MICs were determined by a two-fold serial broth micro dilution according to the recommendation of CLSI standards with an inoculum of 5 × 10^5 CFU/mL^4 The compounds along with standard antibiotics were serially diluted twofold across the wells of 96-well non-binding surface plates (NBS, Corning). […] Gram-positive and Gram-negative bacteria were cultured in Mueller Hinton broth (MHB) (Bacto laboratories, Cat. no. 211443) at 37 °C overnight. A sample of each culture was then diluted 40-fold in fresh MHB broth and incubated at 37 °C for 2-3 h. The resultant mid-log phase cultures were diluted to the final concentration of 5 × 10^5 CFU/mL, then 50 μL was added to each well of the compound containing 96-well plates. All the plates were covered and incubated at 37 °C for 24 h.

[4] = test system: E. histolytica HM1:IMSS trophozoites; experiment: ATP-bioluminescence growth and survival assay, E. histolytica; assay type: cell-based, Entamoeba histolytica; details: MtzS, 48 h, anaerobic, n = 3
Experimental: as §1, §2, §3

[5] = test system: C. difficile NAP1/027 CD26A54_S; experiment: MIC broth microdilution, C. difficile CD26A54_S; assay type: cell-based, Clostridium difficile; details: for MIC: Clostridioides difficile
[6] = test system: G. lamblia BRIS/87/HEPU/713 (713); experiment: ATP-bioluminescence growth and survival assay, G. lamblia 713; assay type: cell-based; details: Giardia duodenalis, read-out: EC50 G. lamblia 713
Experimental: as §1, §2, §3

[7] = test system: G. lamblia BRIS/83/HEPU/106 (106); experiment: ATP-bioluminescence growth and survival assay, G. lamblia 106; assay type: cell-based; details: Giardia duodenalis, read-out: EC50 G. lamblia 106
Experimental: as §1, §2, §3

G. lamblia 713-M3 (713M) = experiment: ATP-bioluminescence growth and survival assay, metronidazole resistant G. lamblia 713-M3; assay type: cell-based; details: Giardia duodenalis, read-out: EC50 G. lamblia 713M
Experimental: as §1, §2, §3

[8] = 24 hr incubation, read-out: MIC C. difficile NAP1/027 CD26A54_R 24 hr
[9] = CD26A54_R, MtzR, 48 h growth, BHIS broth, n = 8, read-out: MIC C. difficile NAP1/027 CD26A54_R 48 h
[10] = 24 hr incubation, read-out: MIC C. difficile NAP1/027 CD26A54_S 24 hr
[11] = CD26A54_S, MtzS (intermediary), 48 h growth, read-out: MIC C. difficile NAP1/027 CD26A54_S 48 h

Row | Structure (SMILES) | EC50 ([1]; Giardia duodenalis) | MIC [2, 8] | MIC [2, 9] | MIC [3] | EC50 ([4]; Entamoeba histolytica) | MIC [5, 10] | MIC [5, 11] | EC50 [6] | EC50 [7] | EC50 (G. lamblia 713-M3 (713M)) | EC50 [1] | MIC C. difficile NAP1/027 CD26A54_R 24 hr ([2]; 24 hr incubation) | MIC C. difficile NAP1/027 CD26A54_R 48 h ([2]; CD26A54_R, MtzR, 48 h growth, BHIS broth, n = 8) | EC50 [4] | MIC C. difficile NAP1/027 CD26A54_S 24 hr ([5]; 24 hr incubation) | MIC C. difficile NAP1/027 CD26A54_S 48 h ([5]; CD26A54_S, MtzS (intermediary), 48 h growth)
1 | Cc1ncc([N+](=O)[O-])n1CCn1cc(-c2cncnc2)nn1 [Compound 4i, 1-(2-(2-methyl-5-nitro-1H-imidazol-1-yl)ethyl)-4-(5-pyrimidinyl)-1H-1,2,3-triazole] | 3300 nM | 2 µg/mL (≈ 6.66 µM) | 4 µg/mL (≈ 13.3 µM) | > 32 µg/mL | > 25000 nM | 1 µg/mL (≈ 3.33 µM) | 1 µg/mL (≈ 3.33 µM) | – | – | – | – | – | – | – | – | –
2 | Cc1ncc([N+](=O)[O-])n1CCn1cc(CCC(=O)O)nn1 [Compound 4r, sodium 1-(2-(2-methyl-5-nitro-1H-imidazol-1-yl)ethyl)-4-(carboxyethyl)-1H-1,2,3-triazole] | > 25000 nM | > 64 µg/mL | > 64 µg/mL | > 32 µg/mL | > 25000 nM | > 64 µg/mL | > 64 µg/mL | – | – | – | – | – | – | – | – | –
3 | Cc1ccc(-c2cn(CCn3c([N+](=O)[O-])cnc3C)nn2)cc1 [Compound 4e, 1-(2-(2-methyl-5-nitro-1H-imidazol-1-yl)ethyl)-4-(p-tolyl)-1H-1,2,3-triazole] | 180 nM | 2 µg/mL (≈ 6.4 µM) | 2 µg/mL (≈ 6.4 µM) | > 32 µg/mL | 3700 nM | 1 µg/mL (≈ 3.2 µM) | 1 µg/mL (≈ 3.2 µM) | 290 nM | 290 nM | 1000 nM | – | – | – | – | – | –
4 | Cc1ncc([N+](=O)[O-])n1CCn1cc(CN2CCS(=O)(=O)CC2)nn1 [Compound 4o, 1-(2-(2-methyl-5-nitro-1H-imidazol-1-yl)ethyl)-4-((1,1-dioxothiomorpholin-4-yl)methyl)-1H-1,2,3-triazole] | > 25000 nM | > 64 µg/mL | > 64 µg/mL | > 32 µg/mL | > 25000 nM | > 64 µg/mL | > 64 µg/mL | – | – | – | – | – | – | – | – | –
5 | Cc1ncc([N+](=O)[O-])n1CCn1cc(Cn2cccn2)nn1 [Compound 4g, 1-(2-(2-methyl-5-nitro-1H-imidazol-1-yl)ethyl)-4-((1H-pyrazol-1-yl)methyl)-1H-1,2,3-triazole] | 4900 nM | 4 µg/mL (≈ 13.2 µM) | 4 µg/mL (≈ 13.2 µM) | > 32 µg/mL | > 25000 nM | 2 µg/mL (≈ 6.62 µM) | 2 µg/mL (≈ 6.62 µM) | – | – | – | – | – | – | – | – | –
6 | COc1ccc(-c2cn(CCn3c([N+](=O)[O-])cnc3C)nn2)cc1 [Compound 4b, 1-(2-(2-methyl-5-nitro-1H-imidazol-1-yl)ethyl)-4-(4-methoxyphenyl)-1H-1,2,3-triazole] | 270 nM | 4 µg/mL (≈ 12.2 µM) | 4 µg/mL (≈ 12.2 µM) | > 32 µg/mL | 4800 nM | 1 µg/mL (≈ 3.05 µM) | 1 µg/mL (≈ 3.05 µM) | 640 nM | 640 nM | 1000 nM | – | – | – | – | – | –
7 | Cc1ncc([N+](=O)[O-])n1CCn1cc(Cc2ccccc2)nn1 [Compound 4k, 1-(2-(2-methyl-5-nitro-1H-imidazol-1-yl)ethyl)-4-benzyl-1H-1,2,3-triazole] | 700 nM | 2 µg/mL (≈ 6.4 µM) | 4 µg/mL (≈ 12.8 µM) | > 32 µg/mL | 1900 nM | 1 µg/mL (≈ 3.2 µM) | 1 µg/mL (≈ 3.2 µM) | 320 nM | 510 nM | 1100 nM | – | – | – | – | – | –
8 | Cc1ncc([N+](=O)[O-])n1CCn1cc(-c2ccccn2)nn1 [Compound 4h, 1-(2-(2-methyl-5-nitro-1H-imidazol-1-yl)ethyl)-4-(2-pyridinyl)-1H-1,2,3-triazole.xTFA] | 740 nM | 2 µg/mL | 4 µg/mL | > 32 µg/mL | 4600 nM | 1 µg/mL | 1 µg/mL | 280 nM | 380 nM | 950 nM | – | – | – | – | – | –
9 | Cc1ncc([N+](=O)[O-])n1CCn1cc(CN)nn1.O=C(O)C(F)(F)F [Compound 4t, 1-(2-(2-methyl-5-nitro-1H-imidazol-1-yl)ethyl)-4-(aminomethyl)-1H-1,2,3-triazole trifluoroacetate salt] | > 25000 nM | > 64 µg/mL | > 64 µg/mL | > 32 µg/mL | > 25000 nM | > 64 µg/mL | > 64 µg/mL | – | – | – | – | – | – | – | – | –
10 | Cc1ncc([N+](=O)[O-])n1CCn1cc(-c2ncccn2)nn1 [Compound 4j, 1-(2-(2-methyl-5-nitro-1H-imidazol-1-yl)ethyl)-4-(2-pyrimidinyl)-1H-1,2,3-triazole] | 1700 nM | 4 µg/mL (≈ 13.3 µM) | 4 µg/mL (≈ 13.3 µM) | > 32 µg/mL | > 25000 nM | 2 µg/mL (≈ 6.66 µM) | 2 to 4 µg/mL (≈ 6.66 to 13.3 µM) | – | – | – | – | – | – | – | – | –
11 | Cc1ncc([N+](=O)[O-])n1CCN=[N+]=[N-] [Compound 3, 1-(2-azidoethyl)-2-methyl-5-nitro-1H-imidazole] | – | – | – | – | – | – | – | – | – | – | 1500 nM | 4 µg/mL (≈ 20.4 µM) | 8 µg/mL (≈ 40.8 µM) | 2100 nM | 2 µg/mL (≈ 10.2 µM) | 2 µg/mL (≈ 10.2 µM)
12 | Cc1ncc([N+](=O)[O-])n1CCn1cc(CO)nn1 [Compound 4q, 1-(2-(2-methyl-5-nitro-1H-imidazol-1-yl)ethyl)-4-(hydroxymethyl)-1H-1,2,3-triazole] | > 25000 nM | 16 µg/mL (≈ 63.4 µM) | 16 µg/mL (≈ 63.4 µM) | > 32 µg/mL | > 25000 nM | 16 µg/mL (≈ 63.4 µM) | 16 to 32 µg/mL (≈ 63.4 to 127 µM) | – | – | – | – | – | – | – | – | –
13 | Cc1ncc([N+](=O)[O-])n1CCn1cc(C(=O)O)nn1 [Compound 4s, 1-(2-(2-methyl-5-nitro-1H-imidazol-1-yl)ethyl)-4-(carboxy)-1H-1,2,3-triazole] | > 25000 nM | > 64 µg/mL | > 64 µg/mL | > 32 µg/mL | > 25000 nM | > 64 µg/mL | > 64 µg/mL | – | – | – | – | – | – | – | – | –
14 | Cc1ncc([N+](=O)[O-])n1CCn1cc(CCO)nn1 [Compound 4p, 1-(2-(2-methyl-5-nitro-1H-imidazol-1-yl)ethyl)-4-(2-hydroxyethyl)-1H-1,2,3-triazole] | > 25000 nM | 8 to 16 µg/mL (≈ 30 to 60.1 µM) | 16 µg/mL (≈ 60.1 µM) | > 32 µg/mL | > 25000 nM | 8 µg/mL (≈ 30 µM) | 8 µg/mL (≈ 30 µM) | – | – | – | – | – | – | – | – | –
